From US10131660B2, “Tetrahydro-azepinoquinolines as agonists of the 5-HT2C receptor” (Sunnylife Pharma, Inc., priority 2014, dated 2018)

Each molecule was assayed against T1, human 5-HT2C receptor (Homo sapiens, UniProt P28335) (assay: Functional calcium mobilization (FLIPR) assay, 5-HT2C). Conditions: CHO cells stably expressing human 5-HT2C receptor; agonist-stimulated Ca2+ flux.
T1 construct: host or cells: CHO cells, stably expressing
T1 sequence (P28335 33-458): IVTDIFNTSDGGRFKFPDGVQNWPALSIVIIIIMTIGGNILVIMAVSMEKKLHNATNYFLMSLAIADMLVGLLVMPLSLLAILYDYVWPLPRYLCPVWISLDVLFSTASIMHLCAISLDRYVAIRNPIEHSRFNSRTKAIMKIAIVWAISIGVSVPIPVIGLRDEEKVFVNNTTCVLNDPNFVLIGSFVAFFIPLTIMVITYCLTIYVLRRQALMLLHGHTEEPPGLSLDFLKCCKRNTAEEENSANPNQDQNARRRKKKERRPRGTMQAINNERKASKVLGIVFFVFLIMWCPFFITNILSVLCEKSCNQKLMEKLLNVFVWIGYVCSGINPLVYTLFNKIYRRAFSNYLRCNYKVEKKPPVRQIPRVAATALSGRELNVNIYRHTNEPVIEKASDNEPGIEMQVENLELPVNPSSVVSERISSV
Type: cell-based
Description: (a) Cell Culture for the Human 5-HT2A, Human 5-HT2B, and Human 5-HT2C Receptors:
CHO cells stably expressing the human 5-HT2A, human 5-HT2B, and human 5-HT2C receptors were purchased from PerkinElmer (Waltham, Mass.). Cells were grown in advance DMEM/F12, 1% dialyzed fetal bovine serum, 2 mM L-glutamine, 100 units/mL penicillin, 1 mg/mL streptomycin, and 0.4 mg/ml Geneticin at 37° C. in 5% CO2 atmosphere.
(b) Calcium Mobilization Assays:
Cells were seeded in black clear-bottom 384-well plates at a density of 10,000 cells/well and incubated overnight at 37° C. in 5% CO2/95% atmosphere. After removing medium, cells were loaded with modified HBSS buffer (137.9 mM NaCl, 5.3 mM KCl, 5.5 mM glucose, 20 mM Hepes, 0.49 mM MgCl2, 1.26 mM CaCl2, 0.41 mM MgSO4, 0.33 mM Na2HPO4, and 0.44 mM KH2PO4) containing the FLIPR Calcium 4 dye (Molecular Devices, CA) and probenecid ([…]) and incubated at 37° C. for 60 min, according to the manufacturer's instructions. Compounds were diluted in HBSS buffer containing 6% DMSO as six folds. Final DMSO concentration in the assay was 1%. The dose-response of agonist-stimulated Ca^2+ flux was measured on a Fluorometric Imaging Plate Reader (FLIPR Tetra) (Molecular Devices, CA).
Data were analyzed by nonlinear least squares curve fitting using GraphPad Prism 5.0 software (GraphPad Software, CA). Agonist stimulation in FLIPR assay was fitted to sigmoidal dose response curves using the equation Y=Bottom+(Top-Bottom)/(1+10^((Log EC50−X)*Hill Slope)), where X is the logarithm of concentration of compounds. Y is the fluorescent response, EC50 is the concentration of compound producing 50% of maximum response. Maximum responses (Emax) of compounds were calculated based on % of stimulation relative to the response of α-methyl-5HT (100%). EC50's are representative of two or three separate experiments performed in triplicates.

Clc1ccc(C2CC2)c2nc3c(cc12)CCNCC3 and Fc1cc(C2CC2)c2nc3c(cc2c1Cl)CCNCC3 cannot be ordered by EC50: less than 1 nM for the first, less than 5 nM for the second.

Cc1c2c(nc3c(Cl)ccc(OC4CCCCC4)c13)CCNCC2 and Cc1c2c(nc3c(OC4CCCCC4)ccc(F)c13)CCNCC2 cannot be ordered by EC50: less than 5 nM for the first, less than 10 nM for the second.

Clc1ccc(OC2CCCCC2)c2cc3c(nc12)CCNCC3 and Cc1c2c(nc3c(OC4CCCCCC4)ccc(F)c13)CCNCC2 cannot be ordered by EC50: less than 50 nM for the first, less than 10 nM for the second.

Fc1cccc(Oc2ccc(Cl)c3nc4c(cc23)CCNCC4)c1 and Fc1cc(C2CC2)c2nc3c(cc2c1F)CCNCC3 cannot be ordered by EC50: less than 20 nM for the first, less than 5 nM for the second.

Cc1c2c(nc3c(C4CC4)ccc(Cl)c13)CCNCC2 and Cc1c2c(nc3c(C4CC4)c(F)cc(F)c13)CCNCC2 cannot be ordered by EC50: less than 15 nM for the first, less than 5 nM for the second.

In the case of Fc1cc(F)c2cc3c(nc2c1C1CC1)CCNCC3, the EC50 is reported as less than 5 nM.
